In ChEMBL document CHEMBL4304764, “Identification of a RIP1 Kinase Inhibitor Clinical Candidate (GSK3145095) for the Treatment of Pancreatic Cancer” (ACS Med Chem Lett, 2019):
Blank lines part the entries; values can stand above or below the compound they belong to.

Experiments:
[1] = Chromatographic hydrophobicity index, log D of the compound at pH 7.4 by RP-HPLC analysis; assay type: physicochemical; details: buffer
[2] = AUC (0 to infinity) in rat at 2 mg/kg, po; assay type: ADME, organism-based; parameters: dose 2 mg/kg, route oral, time infinity; details: in vivo
[3] = in vivo; details: rat, po
[4] = Half life in rat at 1 mg/kg, iv; assay type: ADME, organism-based; details: in vivo
[5] = AUC in monkey at […], po; assay type: ADME, organism-based, Macaca mulatta; details: rhesus monkey, in vivo
[6] = AUC in dog at 2 mg/kg, po; assay type: ADME, organism-based, Canis lupus familiaris; details: in vivo
[7] = Clearance in rat at 1 mg/kg, iv; assay type: ADME, organism-based; details: in vivo
[8] = Clearance in dog at 1.1 mg/kg, iv relative to liver blood flow; assay type: ADME, organism-based, Canis lupus familiaris; details: in vivo
[9] = Volume of distribution at steady state in dog at 1.1 mg/kg, iv; assay type: ADME, organism-based, Canis lupus familiaris; details: in vivo, read-out: Vdss
[10] = Cmax in rat at […], po; assay type: ADME, organism-based; parameters: dose 2.1 mg/kg, route oral; details: in vivo
[11] = Clearance in monkey at […], iv relative to liver blood flow; assay type: ADME, organism-based, Macaca mulatta; details: rhesus monkey, in vivo
[12] = Metabolic stability in monkey hepatocytes in presence of NADPH; assay type: ADME, cell-based, Macaca mulatta, Hepatocyte; details: rhesus monkey
[13] = AUC in rat at […], po; assay type: ADME, organism-based; details: in vivo
[14] = Volume of distribution at steady state in rat at 1 mg/kg, iv; assay type: ADME, organism-based; details: in vivo, read-out: Vdss
[15] = Metabolic stability in human hepatocytes in presence of NADPH; assay type: ADME, cell-based, Hepatocyte
[16] = Clearance in rat at 1 mg/kg, iv relative to liver blood flow; assay type: ADME, organism-based; details: in vivo
[17] = Clearance in dog at 1.1 mg/kg, iv; assay type: ADME, organism-based, Canis lupus familiaris; details: in vivo
[18] = Metabolic stability in rat hepatocytes in presence of NADPH; assay type: ADME, cell-based, Hepatocyte
[19] = Cmax in dog at 2 mg/kg, po; assay type: ADME, organism-based, Canis lupus familiaris; parameters: dose 2 mg/kg, route oral; details: in vivo
[20] = in vivo; details: dog, po, 2 mg/kg
[21] = Half life in monkey at […], iv; assay type: ADME, organism-based, Macaca mulatta; details: rhesus monkey, in vivo

logD [1]: 5.1
Compound: O=C(N[C@H]1COc2ccccc2NC1=O)c1cc(Cc2ccccc2)on1

Compound: O=C(N[C@H]1COc2ccccc2NC1=O)c1n[nH]c(Cc2ccccc2)n1
logD [1]: 3 | AUC(0-inf) [2]: 2500 ng·h/mL

Compound: O=C(N[C@H]1CCc2cc(F)cc(F)c2NC1=O)c1n[nH]c(Cc2ccccc2)n1
Tmax [3]: 49.8 min | half-life [4]: 132 min | AUC [5]: 4400 ng·h/mL | AUC [6]: 2500 ng·h/mL | clearance [7]: 27 mL/min/kg | CL [8]: 18% | Vd [9]: 1.1 L/kg | Cmax [10]: 320 ng/mL | CL [11]: 15% | Stability [12]: Stable | logD [1]: 3.4 | AUC [13]: 1100 ng·h/mL | Vd [14]: 1.8 L/kg | Stability [15]: Stable | CL [16]: 35% | clearance [17]: 9.8 mL/min/kg | AUC(0-inf) [2]: 1100 ng·h/mL | Stability [18]: Stable | Cmax [19]: 910 ng/mL | Tmax [20]: 45 min | t1/2 [21]: 252 min

Compound: CN1C(=O)[C@@H](NC(=O)c2n[nH]c(Cc3ccccc3)n2)CCc2cc(F)cc(F)c21
logD [1]: 4.3 | AUC(0-inf) [2]: 160 ng·h/mL

Compound: O=C(N[C@H]1CCc2ccccc2NC1=O)c1n[nH]c(Cc2ccccc2)n1
logD [1]: 3.1

Compound: CN1C(=O)[C@@H](NC(=O)c2n[nH]c(Cc3ccccc3)n2)CCc2ccccc21
logD [1]: 3.8 | AUC(0-inf) [2]: 310 ng·h/mL
